In patent US10323000B2, “Indole derivatives and their use in neurodegenerative diseases” (priority 2014, dated 2019):
Like-named read-outs stand apart in the source and are kept apart here.

Tests used:
human P2X7 receptor = human P2X7 receptor (Homo sapiens (Human), UniProt Q99572); assay: Pore permeation assay (YO PRO dye uptake); format: cell-based
[1] = biological target: P2X7 (IL-1β release from THP-1 cells) (Homo sapiens (Human), UniProt Q99572); assay: IL-1β release assay; format: cell-based
P2X7 (IL-1β release from THP-1 cells), sequence (Q99572 whole entry): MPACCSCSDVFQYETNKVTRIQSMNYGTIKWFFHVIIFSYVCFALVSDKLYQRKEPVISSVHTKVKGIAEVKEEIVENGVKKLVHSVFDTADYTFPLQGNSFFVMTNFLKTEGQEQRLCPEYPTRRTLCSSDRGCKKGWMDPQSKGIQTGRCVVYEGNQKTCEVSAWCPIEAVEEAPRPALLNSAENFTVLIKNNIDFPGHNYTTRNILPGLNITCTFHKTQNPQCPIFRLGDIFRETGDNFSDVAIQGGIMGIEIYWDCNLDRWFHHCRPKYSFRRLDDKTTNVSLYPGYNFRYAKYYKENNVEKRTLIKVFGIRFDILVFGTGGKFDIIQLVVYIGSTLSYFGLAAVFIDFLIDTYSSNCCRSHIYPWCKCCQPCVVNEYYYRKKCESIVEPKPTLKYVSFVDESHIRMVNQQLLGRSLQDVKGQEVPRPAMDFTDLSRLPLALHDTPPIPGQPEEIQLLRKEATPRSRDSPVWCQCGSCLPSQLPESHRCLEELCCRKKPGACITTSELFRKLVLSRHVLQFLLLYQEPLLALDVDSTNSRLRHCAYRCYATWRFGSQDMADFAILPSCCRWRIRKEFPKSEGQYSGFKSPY
Procedure, shortened: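 THP-1 cells were differentiated with PMA 0.5 μM and primed 4 h with LPS 10 ng/ml. They were then pre-incubated 20 min with compound at 37° C and stimulated 30 min with BzATP 0.8 mM. Mature IL-1β released into the supernatant was quantified by sandwich ELISA.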

[2] = HEK293 transfected with human P2X7, BzATP 10 uM, YO PRO dye uptake, read-out: hP2X7 IC50
[3] = THP-1 cells, LPS primed, 0.8 mM BzATP, mature IL-1β by sandwich ELISA, read-out: hTHP-1/IL-ib IC50

human P2X7 receptor, sequence (Q99572 whole entry): as above

Row | Compound | IC50 (human P2X7 receptor; [2]) [nM] | IC50 [1] [nM] | IC50 (human P2X7 receptor) [nM] | IC50 [1, 3] [nM]
1 | O=C(NCC1CCCC(F)(F)C1)c1cn(CCC(F)F)c2cccc(Cl)c12 (stereo not drawn) [Compound 9, 4-Chloro-1-(3,3-difluoro-propyl)-1H-indole-3-carboxylic acid (3,3-difluoro-cyclohexylmethyl)-amide] | < 10 | 101 to 500 |  | 
2 | O=C(NCCCC(F)(F)F)c1cn(C2COC2)c2cccc(Cl)c12 [Compound 73, 4-Chloro-1-oxetan-3-yl-1H-indole-3-carboxylic acid (4,4,4-trifluoro-butyl)-amide] |  | 500 to 999 | 101 to 500 | 
3 | C[C@H]1CCC[C@@](O)(CNC(=O)c2cn(CC3CCCO3)c3cccc(Cl)c23)C1 (stereo partly drawn) [Compound 140, 4-chloro-N-(((1S,3S)-1-hydroxy-3-methylcyclohexyl)methyl)-1-((tetrahydrofuran-2-yl)methyl)-1H-indole-3-carboxamide] |  | 10 to 100 | 10 to 100 | 
4 | O=C(NCC1CCCC(C(F)(F)F)C1)c1cn(C2COC2)c2cccc(Cl)c12 (stereo not drawn) [Compound 56, 4-Chloro-1-oxetan-3-yl-1H-indole-3-carboxylic acid (3-trifluoromethyl-cyclohexylmethyl)-amide] |  | 101 to 500 | 10 to 100 | 
5 | CN1CC(n2cc(C(=O)NCC3CCC(F)(F)CC3)c3c(Cl)cccc32)C1 [Compound 119, 4-chloro-N-((4,4-difluorocyclohexyl)methyl)-1-(1-methylazetidin-3-yl)-1H-indole-3-carboxamide] |  | 101 to 500 | 101 to 500 | 
6 | CC1CC(F)(F)CC(O)(CNC(=O)c2cn(CC3CCCO3)c3cccc(Cl)c23)C1 (stereo not drawn) [Compound 138, 4-chloro-N-((3,3-difluoro-1-hydroxy-5-methylcyclohexyl)methyl)-1-((tetrahydrofuran-2-yl)methyl)-1H-indole-3-carboxamide] |  | 101 to 500 | 101 to 500 | 
7 | CCC1CCCC(O)(CNC(=O)c2cn(CCOC)c3cccc(Cl)c23)C1 (stereo not drawn) [Compound 22, 4-chloro-N-((3-ethyl-1-hydroxycyclohexyl)methyl)-1-(2-methoxyethyl)-1H-indole-3-carboxamide] |  |  | 101 to 500 | > 1000
8 | O=C(NCC1(O)CCCCCC1)c1cn(C2COC2)c2cccc(Cl)c12 [Compound 65, 4-Chloro-1-oxetan-3-yl-1H-indole-3-carboxylic acid (1-hydroxy-cycloheptylmethyl)-amide] |  | 101 to 500 | 10 to 100 | 
9 | O=C(NCC1CCC(F)(F)CC1)c1cn(CC(=O)N2CCC2)c2cccc(Cl)c12 [Compound 163] | < 10 | 10 to 100 |  | 
10 | CN1CCOC(Cn2cc(C(=O)NCC3CCC(F)(F)CC3)c3c(Cl)cccc32)C1 (stereo not drawn) [Compound 183, 4-chloro-N-((4,4-difluorocyclohexyl)methyl)-1-((4-methylmorpholin-2-yl)methyl)-1H-indole-3-carboxamide] |  | 10 to 100 | 10 to 100 | 
11 | COCCn1cc(C(=O)NCC2CCC(F)(F)CC2)c2c(C(F)(F)F)cccc21 [Compound 199] |  | 101 to 500 | 101 to 500 | 
12 | O=C(NCCOC1CCCC1)c1cn(C2COC2)c2cccc(Cl)c12 [Compound 72, 4-Chloro-1-oxetan-3-yl-1H-indole-3-carboxylic acid (2-cyclopentyloxy-ethyl)-amide] |  |  | 500 to 999 | > 1000
13 | CN1CC(F)(F)C[C@H]1Cn1cc(C(=O)NCC2CCC(F)(F)CC2)c2c(Cl)cccc21 [Compound 180, (S)-4-chloro-1-((4,4-difluoro-1-methylpyrrolidin-2-yl)methyl)-N-((4,4-difluorocyclohexyl)methyl)-1H-indole-3-carboxamide] |  | 500 to 999 | 101 to 500 | 
14 | O=C(NCC1(O)CCC(F)(F)CC1)c1cn(C[C@@H]2CCCO2)c2cccc(Cl)c12 [Compound 134, (S)-4-chloro-N-((4,4-difluoro-1-hydroxycyclohexyl)methyl)-1-((tetra hydrofuran-2-yl)methyl)-1H-indole-3-carboxamide] |  | 101 to 500 | 10 to 100 | 
15 | O=C(NCC1(O)CCCC(F)(F)C1)c1cn(CC2CCCN2)c2cccc(Cl)c12 (stereo not drawn) [Compound 155, 4-chloro-N-((3,3-difluoro-1-hydroxycyclohexyl)methyl)-1-(pyrrolidin-2-ylmethyl)-1H-indole-3-carboxamide] |  |  | 10 to 100 | < 10
16 | O=C(NCC1(O)CCCC(F)(F)C1)c1cn(CC2CCNC2)c2cccc(Cl)c12 (stereo not drawn) [Compound 159, 4-chloro-N-((3,3-difluoro-1-hydroxycyclohexyl)methyl)-1-(pyrrolidin-3-ylmethyl)-1H-indole-3-carboxamide] |  | 101 to 500 | 10 to 100 | 
17 | O=C(NCC1C[C@@H]2CC[C@H]1C2)c1cn(C2CCOC2)c2cccc(Cl)c12 (stereo partly drawn) [Compound 105, 4-Chloro-1-(tetrahydro-furan-3-yl)-1H-indole-3-carboxylic acid ((1S,4R)-1-bicyclo[2.2.1]hept-2-ylmethyl)-amide] |  | 101 to 500 | 10 to 100 | 

Row | Compound | IC50 (human P2X7 receptor; [2]) [nM] | IC50 [1] [nM] | IC50 (human P2X7 receptor) [nM] | IC50 [1, 3] [nM]
18 | O=C(NC[C@@]1(O)CCCC(F)(F)C1)c1cn(C2COC2)c2cccc(Cl)c12 [Compound 84, (R)-4-chloro-N-((3,3-difluoro-1-hydroxycyclohexyl)methyl)-1-(oxetan-3-yl)-1H-indole-3-carboxamide] |  | 101 to 500 | 101 to 500 | 
19 | O=C(NC[C@@H]1CCCC(F)(F)C1)c1cn(C2COC2)c2cccc(Cl)c12 [Compound 66, 4-chloro-N—(((R)-3,3-difluorocyclohexyl)methyl)-1-(oxetan-3-yl)-1H-indole-3-carboxamide] |  | 101 to 500 | 10 to 100 | 
20 | O=C(NCC1CCC(F)(F)CC1)c1cn(CC2COCCN2)c2cccc(Cl)c12 (stereo not drawn) [Compound 164, 4-chloro-N-((4,4-difluorocyclohexyl)methyl)-1-(morpholin-3-ylmethyl)-1H-indole-3-carboxamide] |  | 10 to 100 | 101 to 500 | 
21 | O=C(NCC1CCC(F)(F)CC1)c1cn(CC2CCCCN2)c2cccc(Cl)c12 (stereo not drawn) [Compound 173, 4-chloro-N-((4,4-difluorocyclohexyl)methyl)-1-(piperidin-2-ylmethyl)-1H-indole-3-carboxamide] | < 10 |  |  | < 10
22 | O=C(NCC1CCCC(F)(F)C1)c1cn(CC2CCCN2)c2cccc(Cl)c12 (stereo not drawn) [Compound 156, 4-chloro-N-((3,3-difluorocyclohexyl)methyl)-1-(pyrrolidin-2-ylmethyl)-1H-indole-3-carboxamide] |  |  | 10 to 100 | < 10
23 | O=C(NCC1(O)CCCC(F)(F)C1)c1cn(CC2CCCO2)c2cccc(Cl)c12 (stereo not drawn) [Compound 139, 4-chloro-N-((3,3-difluoro-1-hydroxycyclohexyl)methyl)-1-((tetrahydrofuran-2-yl)methyl)-1H-indole-3-carboxamide] |  | 10 to 100 | 10 to 100 | 
24 | O=C(NCC1CCC(F)(F)CC1)c1cn(CC2CC(F)(F)C2)c2cccc(Cl)c12 [Compound 127, 4-chloro-1-((3,3-difluorocyclobutyl)methyl)-N-((4,4-difluorocyclohexyl)methyl)-1H-indole-3-carboxamide] |  | 500 to 999 | 10 to 100 | 
25 | CN1CCOCC1Cn1cc(C(=O)NCC2CCC(F)(F)CC2)c2c(Cl)cccc21 (stereo not drawn) [Compound 184, 4-chloro-N-((4,4-difluorocyclohexyl)methyl)-1-((4-methylmorpholin-3-yl)methyl)-1H-indole-3-carboxamide] |  | 101 to 500 | 101 to 500 | 
26 | O=C(NCC1(O)CCC(F)(F)CC1)c1cn(CC(F)(F)F)c2cccc(Cl)c12 [Compound 4, 4-chloro-N-((4,4-difluoro-1-hydroxycyclohexyl)methyl)-1-(2,2,2-trifluoroethyl)-1H-indole-3-carboxamide] |  | 101 to 500 | 10 to 100 | 
27 | O=C(NCC1CCC(F)(F)CC1)c1cn(CC2CCCN2C2CC2)c2cccc(Cl)c12 (stereo not drawn) [Compound 197, 4-chloro-1-((1-cyclopropylpyrrolidin-2-yl)methyl)-N-((4,4-difluorocyclohexyl)methyl)-1H-indole-3-carboxamide] |  | 10 to 100 | 10 to 100 | 
28 | COCCn1cc(C(=O)NCC2(O)CCC(F)(F)CC2)c2c(Cl)cccc21 [Compound 40, 4-chloro-N-((4,4-difluoro-1-hydroxycyclohexyl)methyl)-1-(2-methoxyethyl)-1H-indole-3-carboxamide] |  | 10 to 100 | 10 to 100 | 
29 | O=C(NCC1CC(C(F)(F)F)CC(F)(F)C1)c1cn(C2COC2)c2cccc(Cl)c12 (stereo not drawn) [Compound 91, 4-chloro-N-((3,3-difluoro-5-(trifluoromethyl)cyclohexyl)methyl)-1-(oxetan-3-yl)-1H-indole-3-carboxamide] |  | 101 to 500 | 10 to 100 | 
30 | O=C(NCC1CCC(F)(F)CC1)c1cn(CC(=O)N2CCCC2)c2cccc(Cl)c12 [Compound 185, 4-Chloro-1-(2-oxo-2-pyrrolidin-1-yl-ethyl)-1H-indole-3-carboxylic acid (4,4-difluoro-cyclohexylmethyl)-amide] |  | 10 to 100 | 10 to 100 | 
31 | O=C(NCC1C[C@@H]2CC[C@H]1C2)c1cn(C2COC2)c2cccc(Cl)c12 (stereo partly drawn) [Compound 59, 4-Chloro-1-oxetan-3-yl-1H-indole-3-carboxylic acid ((1S,4R)-1-bicyclo[2.2.1]hept-2-ylmethyl)-amide] |  | 10 to 100 | 10 to 100 | 
32 | O=C(NCC1CCC(F)(F)CC1)c1cn(CCOC(F)F)c2cccc(Cl)c12 [Compound 95, 4-chloro-N-((4,4-difluorocyclohexyl)methyl)-1-(2-(difluoromethoxy)ethyl)-1H-indole-3-carboxamide] |  | 101 to 500 | 10 to 100 | 
33 | O=C(NC[C@@]1(O)CCCC(F)(F)C1)c1cn(CCN2CCCC2=O)c2cccc(Cl)c12 [Compound 186, (R)-4-chloro-N-((3,3-difluoro-1-hydroxycyclohexyl)methyl)-1-(2-(2-oxopyrrolidin-1-yl)ethyl)-1H-indole-3-carboxamide] | > 1000 |  |  | > 1000
